In paper PMC3966885, “F9 Fimbriae of Uropathogenic Escherichia coli Are Expressed at Low Temperature and Recognise Galβ1-3GlcNAc-Containing Glycans” (PLoS ONE, 2014):

Molecular target: T1, F9 fimbriae (F9 adhesin) (Escherichia coli, UniProt A0A0H2V7F6)
T1 construct: gene ydeQ; whole F9 fimbriae (six-gene operon c1931-c1936, plasmid pF9, ara promoter) over-expressed on GFP-labelled E. coli K-12 MG1655fim (MS428); mature adhesin 280 aa, N-terminal lectin domain 160 aa
Assay: glycan array with whole GFP-labelled F9 over-expressing E. coli
Format: cell-based
Details: glycan printed on super epoxy slide; PBS with 2 mM MgCl2 and CaCl2, room temperature; also used free at 50 μM as competitor

T1 sequence (A0A0H2V7F6 entry or part of it): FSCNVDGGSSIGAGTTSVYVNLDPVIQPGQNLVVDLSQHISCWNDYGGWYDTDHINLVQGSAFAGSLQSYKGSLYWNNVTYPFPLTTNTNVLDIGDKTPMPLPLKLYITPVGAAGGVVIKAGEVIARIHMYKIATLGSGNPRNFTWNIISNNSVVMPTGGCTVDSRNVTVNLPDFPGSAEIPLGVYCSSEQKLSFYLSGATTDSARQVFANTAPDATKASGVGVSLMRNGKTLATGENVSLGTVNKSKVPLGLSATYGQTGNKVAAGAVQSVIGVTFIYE

## CC(=O)N[C@H]1[C@H](O[C@H]2[C@@H](O)[C@@H](CO)O[C@@H](O[C@H]3[C@H](O)[C@@H](O)C(O)O[C@@H]3CO)[C@@H]2O)O[C@H](CO)[C@@H](O)[C@@H]1O[C@@H]1O[C@H](CO)[C@H](O)[C@H](O)[C@H]1O (stereo partly shown) [lacto-N-tetraose, Galβ1-3GlcNAcβ1-3Galβ1-4Glc]
  glycan array with whole GFP-labelled F9 over-expressing E. coli: Of the glycans that were bound by F9 fimbriae, lacto-N-tetraose displayed the highest affinity
